Results taken from patent US20230257351A1, “SUBSTITUTED N-[…] HAVING P2X4 RECEPTOR ANTAGONISTIC ACTIVITY” (Bayer Aktiengesellschaft, priority 2020, published 2023).

Tests used:
[1] = target: T1, human P2X4 (Homo sapiens, UniProt Q99571); assay: Human P2X4 HEK Cell FLIPR Assay; assay type: cell-based; conditions: HEK293 stably expressing human P2X4, agonist Bz-ATP 3 μM (EC80); for IC50: read-out: Human P2X4 HEK Cells (FLIPR Assay) avg IC50
T1 construct: expressed in transfected cells
T1 sequence (Q99571 1-388): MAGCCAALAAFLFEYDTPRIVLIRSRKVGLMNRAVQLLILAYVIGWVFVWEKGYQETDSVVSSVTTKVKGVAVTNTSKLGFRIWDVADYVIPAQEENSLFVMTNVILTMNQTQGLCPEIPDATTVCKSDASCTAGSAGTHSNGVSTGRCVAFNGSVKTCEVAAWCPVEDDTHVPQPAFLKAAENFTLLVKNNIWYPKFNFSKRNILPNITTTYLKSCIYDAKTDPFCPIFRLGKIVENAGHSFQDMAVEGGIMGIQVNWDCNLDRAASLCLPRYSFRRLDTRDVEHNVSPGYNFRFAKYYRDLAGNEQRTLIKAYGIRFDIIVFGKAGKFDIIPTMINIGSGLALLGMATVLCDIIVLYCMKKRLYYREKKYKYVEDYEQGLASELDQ
Summary of the method: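 HEK293 cells stably expressing human P2X4 were loaded with Fluo8-AM (30 min, 37 °C, HBSS/HEPES pH 7.4 with probenecid), then preincubated 30 min at room temperature with compound, 25 μM–1 nM final, 0.5% DMSO. Bz-ATP-evoked calcium fluorescence was read on FLIPR; data were normalized to agonist control and given a four-parameter fit for IC50.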

[2] = target: T2, rat P2X4 (Rattus norvegicus, UniProt P51577); assay: FLIPR Method for Rat P2X4 1321N1 Astrocytoma Cells; assay type: cell-based; conditions: 1321N1 stably expressing rat P2X4; agonist MgATP 5 μM (EC80)
T2 construct: expressed in transfected cells
T2 sequence (P51577 1-388): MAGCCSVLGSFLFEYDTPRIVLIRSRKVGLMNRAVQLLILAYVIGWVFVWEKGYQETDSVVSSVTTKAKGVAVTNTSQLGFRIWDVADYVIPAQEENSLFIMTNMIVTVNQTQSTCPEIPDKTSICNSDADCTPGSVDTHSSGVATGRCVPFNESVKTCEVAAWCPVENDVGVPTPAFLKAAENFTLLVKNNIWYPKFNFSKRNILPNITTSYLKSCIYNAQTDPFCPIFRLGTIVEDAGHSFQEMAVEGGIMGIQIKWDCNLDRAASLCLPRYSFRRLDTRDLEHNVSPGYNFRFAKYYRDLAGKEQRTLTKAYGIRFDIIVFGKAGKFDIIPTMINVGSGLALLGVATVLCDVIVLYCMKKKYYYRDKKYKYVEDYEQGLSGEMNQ
Method: Compounds were tested on a 1321N1 cell line stably expressing rat P2X4. Cells were cultured on collagen-I-coated 384-well plates at a density of 10,000 cells/well and incubated overnight at 37° C., 5% CO2. P2X4 function was assessed by measuring intracellular calcium fluxes caused by Magnesium-ATP (MgATP) using the calcium-chelating dye Fluo8-AM (Molecular Devices) with the Fluorescent Imaging Plate Reader Tetra (FLIPR^Tetra; Molecular Devices CA). On the day of the assay, the medium was removed and the cells were incubated for 30 minutes at 37° C. and 5% CO2 in 30 μl of dye buffer (Hank's balanced salt solution, 10 mM HEPES, 1.8 mM CaCl2, 1 mM MgCl2, 2 mM probenecid, 5 mM D-glucose monohydrate, 5 μM Fluo8-AM, pH=7.4).
Compounds diluted in probenecid buffer (Hank's balanced salt solution, 10 mM HEPES, 1.8 mM CaCl2, 1 mM MgCl2, 2 mM probenecid, 5 mM D-glucose monohydrate, pH=7.4) at ten concentrations ranging from 25 μM to 1 nM (final concentration) were dispensed and incubated for 30 minutes at room temperature. The agonist, MgATP (Sigma-Aldrich Chemie GmbH, DE), was added at a final concentration of 5 μM, representing the EC80 routinely determined. The final assay volume was 50 μl and final DMSO concentration was 0.5%.
The fluorescence intensity reflecting intracellular calcium changes was recorded before and after MgATP addition, at an excitation and emission wavelengths of 470-495 nm and 515-575 nm respectively.
The compounds were tested in triplicates and fluorescence intensity raw data normalized to the agonist control and fitted to the four-parameter logistic equation:
Y=Bottom+(Top−Bottom)/(1+10^((Log IC50−X)*HillSlope))
Assay plate acceptance was based on the signal window (S/B)[…] and the reference compound pIC50 within ±[…] the mean of historic pIC50 of the compound. Failure to meet two of the three criteria determined exclusion of the plate's results. In Table 10 below the results for the assays are reported

Row | Human P2X4 HEK Cells (FLIPR Assay) avg Efficacy [1] | IC50 [1] | IC50 [2] | Rat P2X4 1321N1 Astrocytoma Cells (FLIPR Assay) avg Efficacy [2] | Compound
1 | 89% | 224 nM | 96.7 nM | 82% | CC(=O)N(c1ccc(F)c(F)c1)c1cc(NC(=O)Cc2ccccc2Cl)ccn1 [Example 1, N-{4-[2-(2-chlorophenyl)acetamido]pyridin-2-yl}-N-(3,4-difluorophenyl)acetamide]
2 | 100% | 397 nM | 855 nM | 100% | CC(=O)N(c1cccc(C(F)F)c1)c1cc(NC(=O)Cc2cccc(F)c2Cl)ccn1 [Example 4, N-{4-[2-(2-chloro-3-fluorophenyl)acetamido]pyridin-2-yl}-N-[3-(difluoromethyl)phenyl]acetamide]
3 | 102% | 386 nM | 440 nM | 100% | CC(=O)N(c1cccc(C(F)F)c1)c1cc(NC(=O)Cc2c(Cl)cccc2Cl)ccn1 [Example 5, N-{4-[2-(2,6-dichlorophenyl)acetamido]pyridin-2-yl}-N-[3-(difluoromethyl)phenyl]acetamide]
4 | 96% | 289 nM | 790 nM | 93% | CC(=O)N(c1cccc(C#N)c1)c1cc(NC(=O)Cc2ccccc2Cl)ccn1 [Example 13, N-{4-[2-(2-chlorophenyl)acetamido]pyridin-2-yl}-N-(3-cyanophenyl)acetamide]
5 | 100% | 243 nM | 201 nM | 98% | CC(=O)N(c1cccc(C#N)c1)c1cc(NC(=O)Cc2c(Cl)cccc2Cl)ccn1 [Example 14, N-(3-cyanophenyl)-N-{4-[2-(2,6-dichlorophenyl)acetamido]pyridin-2-yl)acetamide]
6 | 90% | 766 nM |  |  | CC(=O)N(c1ccc(F)cc1)c1cc(NC(=O)Cc2ccccc2Cl)cnn1 [Example 192, N-{5-[2-(2-chlorophenyl)acetamido]pyridazin-3-yl}-N-(4-fluorophenyl)acetamide]
7 | 93% | 868 nM |  |  | CC(=O)N(c1ccc(F)cc1)c1cc(NC(=O)Cc2c(Cl)cccc2Cl)cnn1 [Example 193, N-{5-[2-(2,6-dichlorophenyl)acetamido]pyridazin-3-yl}-N-(4-fluorophenyl)acetamide]
8 | 96% | 407 nM |  |  | CC(=O)N(c1cccc(F)c1)c1cc(NC(=O)Cc2c(Cl)cccc2Cl)cnn1 [Example 194, N-{5-[2-(2,6-dichlorophenyl)acetamido]pyridazin-3-yl}-N-(3-fluorophenyl)acetamide]
9 | 95% | 486 nM |  |  | CC(=O)N(c1cccc(F)c1)c1cc(NC(=O)Cc2cccc(F)c2Cl)cnn1 [Example 195, N-{5-[2-(2-chloro-3-fluorophenyl)acetamido]pyridazin-3-yl}-N-(3-fluorophenyl)acetamide]
10 | 94% | 546 nM |  |  | CC(=O)N(c1cccc(F)c1)c1cc(NC(=O)Cc2ccccc2Cl)cnn1 [Example 196, N-{5-[2-(2-chlorophenyl)acetamido]pyridazin-3-yl}-N-(3-fluorophenyl)acetamide]
11 | 93% | 674 nM |  |  | CC(=O)N(c1cccc(F)c1)c1cc(NC(=O)Cc2c(F)cccc2Cl)cnn1 [Example 197, N-{5-[2-(2-chloro-6-fluorophenyl)acetamido]pyridazin-3-yl}-N-(3-fluorophenyl)acetamide]
12 | 96% | 943 nM |  |  | CC(=O)N(c1cccc(F)c1)c1cc(NC(=O)Cc2ccc(F)cc2Cl)cnn1 [Example 198, N-{5-[2-(2-chloro-4-fluorophenyl)acetamido]pyridazin-3-yl}-N-(3-fluorophenyl)acetamide]
13 | 86% | 447 nM |  |  | CC(=O)N(c1ccc(F)c(F)c1)c1cc(NC(=O)Cc2ccccc2Cl)cnn1 [Example 199, N-{5-[2-(2-chlorophenyl)acetamido]pyridazin-3-yl}-N-(3,4-difluorophenyl)acetamide]
14 | 91% | 465 nM |  |  | CC(=O)N(c1ccc(F)c(F)c1)c1cc(NC(=O)Cc2c(Cl)cccc2Cl)cnn1 [Example 200, N-{5-[2-(2,6-dichlorophenyl)acetamido]pyridazin-3-yl}-N-(3,4-difluorophenyl)acetamide]
15 | 89% | 510 nM |  |  | CC(=O)N(c1ccc(F)c(F)c1)c1cc(NC(=O)Cc2cccc(F)c2Cl)cnn1 [Example 201, N-{5-[2-(2-chloro-3-fluorophenyl)acetamido]pyridazin-3-yl}-N-(3,4-difluorophenyl)acetamide]
16 | 94% | 557 nM |  |  | CC(=O)N(c1ccc(F)c(F)c1)c1cc(NC(=O)Cc2ccc(F)cc2Cl)cnn1 [Example 202, N-{5-[2-(2-chloro-4-fluorophenyl)acetamido]pyridazin-3-yl}-N-(3,4-difluorophenyl)acetamide]
17 | 86% | 737 nM |  |  | CC(=O)N(c1ccc(F)c(F)c1)c1cc(NC(=O)Cc2c(F)cccc2Cl)cnn1 [Example 203, N-{5-[2-(2-chloro-6-fluorophenyl)acetamido]pyridazin-3-yl}-N-(3,4-difluorophenyl)acetamide]
18 | 95% | 383 nM |  |  | CC(=O)N(c1cc(F)cc(F)c1)c1cc(NC(=O)Cc2c(Cl)cccc2Cl)cnn1 [Example 204, N-{5-[2-(2,6-dichlorophenyl)acetamido]pyridazin-3-yl}-N-(3,5-difluorophenyl)acetamide]
19 | 93% | 433 nM |  |  | CC(=O)N(c1cc(F)cc(F)c1)c1cc(NC(=O)Cc2ccccc2Cl)cnn1 [Example 205, N-{5-[2-(2-chlorophenyl)acetamido]pyridazin-3-yl}-N-(3,5-difluorophenyl)acetamide]
20 | 93% | 449 nM |  |  | CC(=O)N(c1cc(F)cc(F)c1)c1cc(NC(=O)Cc2cccc(F)c2Cl)cnn1 [Example 206, N-{5-[2-(2-chloro-3-fluorophenyl)acetamido]pyridazin-3-yl}-N-(3,5-difluorophenyl)acetamide]
21 | 96% | 477 nM |  |  | CC(=O)N(c1cc(F)cc(F)c1)c1cc(NC(=O)Cc2ccc(F)cc2Cl)cnn1 [Example 207, N-{5-[2-(2-chloro-4-fluorophenyl)acetamido]pyridazin-3-yl}-N-(3,5-difluorophenyl)acetamide]
22 | 91% | 669 nM |  |  | CC(=O)N(c1cc(F)cc(F)c1)c1cc(NC(=O)Cc2c(F)cccc2Cl)cnn1 [Example 208, N-{5-[2-(2-chloro-6-fluorophenyl)acetamido]pyridazin-3-yl}-N-(3,5-difluorophenyl)acetamide]
